In PubChem BioAssay (NCI):
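Values below derive from 48-hour exposures of cells grown in 96-well plates, with endpoints linearly interpolated between the two concentrations bracketing the appropriate inhibition level. TGI: concentration producing complete growth inhibition.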

How the values were obtained:
Assay in all cases: inhibition of tumour cell growth, NCI panel, 48 h
[1] = test system: SF-295 CNS
[2] = test system: RPMI-8226 leukemia
[3] = test system: MDA-N
[4] = test system: MOLT-4 leukemia
[5] = test system: HS 578T breast
[6] = test system: HCC-2998 colon
[7] = test system: CAKI-1 renal
[8] = test system: UO-31 renal
[9] = test system: RXF 393 renal
[10] = test system: HCT-15 colon
[11] = test system: 786-0 renal
[12] = test system: SN12C renal
[13] = test system: MALME-3M melanoma
[14] = test system: A549 NSCLC
[15] = test system: ACHN renal
[16] = test system: OVCAR-3 ovarian
[17] = test system: IGROV1 ovarian
[18] = test system: SR leukemia
[19] = test system: OVCAR-4 ovarian
[20] = test system: K-562 leukemia
[21] = test system: NCI-H522 lung
[22] = test system: BT-549 breast
[23] = test system: SNB-75 CNS
[24] = test system: HL-60(TB) leukemia
[25] = test system: SK-OV-3 ovarian
[26] = test system: DU-145 prostate
[27] = test system: EKVX NSCLC
[28] = test system: HT29 colon
[29] = test system: KM12 colon
[30] = test system: MDA-MB-231 breast
[31] = test system: A498 renal
[32] = test system: SF-268 CNS
[33] = test system: HCT-116 colon
[34] = test system: SNB-19 CNS
[35] = test system: MDA-MB-435
[36] = test system: M14 melanoma
[37] = test system: OVCAR-5 ovarian
[38] = test system: T-47D breast
[39] = test system: TK-10 renal
[40] = test system: UACC-257 melanoma
[41] = test system: NCI-H460 lung
[42] = test system: NCI-H23 lung
[43] = test system: OVCAR-8 ovarian
[44] = test system: HOP-62 NSCLC
[45] = test system: SK-MEL-5 melanoma
[46] = test system: SF-539 CNS
[47] = test system: U251 CNS
[48] = test system: PC-3 prostate
[49] = test system: UACC-62 melanoma
[50] = test system: SK-MEL-2 melanoma
[51] = test system: CCRF-CEM leukemia
[52] = test system: SW-620 colon
[53] = test system: MCF7 breast
[54] = test system: NCI/ADR-RES ovarian
[55] = test system: COLO 205 colon
[56] = test system: SK-MEL-28 melanoma
[57] = test system: HOP-92 NSCLC
[58] = test system: LOX IMVI melanoma
[59] = test system: NCI-H226 lung

O=C1c2cccc3cc4ccccc4c(c23)C(=O)N1CCCNCCNCCCN1C(=O)c2cccc3cc4ccccc4c(c23)C1=O
TGI [1]: 1.64 µM | TGI [2]: 0.387 µM | TGI [3]: 1.82 µM | TGI [4]: 1.36 µM | TGI [5]: 1.98 µM | TGI [6]: 1.71 µM | TGI [7]: 1.52 µM | TGI [8]: 1.96 µM | TGI [9]: 1.58 µM | TGI [10]: 1.36 µM | TGI [11]: 1.69 µM | TGI [12]: 1.86 µM | TGI [13]: 1.8 µM | TGI [14]: 0.373 µM | TGI [15]: 1.6 µM | TGI [16]: 1.86 µM | TGI [17]: 1.72 µM | TGI [18]: 1.51 µM | TGI [19]: 1.58 µM | TGI [20]: 0.337 µM | TGI [21]: 1.46 µM | TGI [22]: 2.4 µM | TGI [23]: 1.48 µM | TGI [24]: 8.28 µM | TGI [25]: 1.65 µM | TGI [26]: 2.04 µM | TGI [27]: 2.37 µM | TGI [28]: 0.555 µM | TGI [29]: 1.29 µM | TGI [30]: 1.66 µM | TGI [31]: 1.91 µM | TGI [32]: 2.18 µM | TGI [33]: 0.168 µM | TGI [34]: 2.23 µM | TGI [35]: 1.73 µM | TGI [36]: 2.21 µM | TGI [37]: 1.98 µM | TGI [38]: 2.54 µM | TGI [39]: 2.18 µM | TGI [40]: 2.25 µM | TGI [41]: 0.161 µM | TGI [42]: 1.77 µM | TGI [43]: 0.337 µM | TGI [44]: 1.72 µM | TGI [45]: 1.39 µM | TGI [46]: 1.45 µM | TGI [47]: 1.73 µM | TGI [48]: 1.43 µM

CCO/C=N/C1=C(C#N)C(c2ccc(OC)c(OC)c2)c2c(-c3ccccc3)nn(-c3ccccc3)c2O1 (stereo not drawn)
TGI [1]: 30.7 µM | TGI [2]: > 100 µM | TGI [3]: 35.5 µM | TGI [4]: 38.4 µM | TGI [5]: > 100 µM | TGI [6]: > 100 µM | TGI [7]: 33.3 µM | TGI [8]: 38.5 µM | TGI [9]: 29.8 µM | TGI [10]: 18 µM | TGI [49]: 27.6 µM | TGI [11]: 29.2 µM | TGI [12]: 38.9 µM | TGI [13]: 51.2 µM | TGI [14]: 40.5 µM | TGI [50]: 43.8 µM | TGI [51]: 6.26 µM | TGI [15]: 28.3 µM | TGI [16]: 77.1 µM | TGI [17]: 14.8 µM | TGI [20]: 27 µM | TGI [21]: 38.2 µM | TGI [52]: 29.2 µM | TGI [22]: 23.8 µM | TGI [23]: 34.2 µM | TGI [24]: 8.85 µM | TGI [25]: 60.2 µM | TGI [26]: 28.7 µM | TGI [27]: 33.1 µM | TGI [53]: 53.1 µM | TGI [28]: 52.5 µM | TGI [29]: 22.1 µM | TGI [30]: 40.4 µM | TGI [54]: 48.3 µM | TGI [32]: 61.7 µM | TGI [55]: 27.1 µM | TGI [56]: 29.4 µM | TGI [57]: 30 µM | TGI [33]: 28.3 µM | TGI [34]: 29.6 µM | TGI [35]: 33.1 µM | TGI [36]: 60 µM | TGI [37]: 52.6 µM | TGI [58]: 31 µM | TGI [38]: 60.5 µM | TGI [40]: > 100 µM | TGI [41]: > 100 µM | TGI [42]: 31.1 µM | TGI [43]: 47.6 µM | TGI [44]: > 100 µM | TGI [45]: 24.4 µM | TGI [46]: 33.7 µM | TGI [47]: 26.8 µM | TGI [59]: 32.9 µM | TGI [48]: > 100 µM
